Converted amounts (≈) assume the structure as drawn. Where a SMILES comes first, the peptide text is derived from it. Bridges are numbered along the chain shown (N, C = ends). [ ]: non-standard residue; d: D form. The star is where a group is joined. ξ: configuration not given here. Hexanoyl(4ξ-Me) = CCC(C)CCC(=O)*; dOrn = NCCC[C@@H](N)C(=O)O; Orn = NCCC[C@H](N)C(=O)O
Legend:
[1] = tested on: K. pneumoniae NRRL-B-3521; format: cell-based, Klebsiella pneumoniae; conditions: NRRL-B-3521, 24 h
Method: MIC was determined by broth microdilution according to CLSI guidelines. The test medium for most species was Mueller–Hinton broth (MHB). Bacteria were grown overnight to early stationary phase and adjusted in MHB to 5.0 × 10^5 c.f.u. mL^−1 in the wells of 96-well microtiter plates (Falcon® 96-Well Flat-Bottom Microplate, Tissue Culture-Treated), mixed with varying concentrations of test compounds and incubated at 37 °C for 24 h. Cell growth was evaluated by measuring the optical density at 595 nm (Thermo Scientific Multiskan FC multiplate photometer) (Waltham, MA, USA), and the MIC was defined as the lowest compound concentration at which no bacterial growth was observed. MHBs containing 10% fetal bovine serum (Gibco), 21 mM MgCl, or 1.0 mg mL^−1 LPS (lipopolysaccharides from E. coli O55:B5, Sigma-Aldrich) was used to test their inhibitory effects.

[2] = tested on: E. coli TOP10 cells; test: Time-kill assay; format: cell-based, Escherichia coli
Method: An overnight culture of E. coli TOP10 cells was diluted 1:10,000 in MHB and incubated at 37 °C with agitation at 180 rpm for 2 h (early exponential). The bacteria were then challenged with brevicidine (20 μg mL^−1), laterocidine (20 μg mL^−1), or polymyxin B (10 μg mL^−1) at ten times the MIC at room temperature without shaking. An untreated sample of cells was used as a negative control. At intervals, 10 μL aliquots were removed, centrifuged at 10,000 × g for 1 min and resuspended in 1.0 mL of sterile PBS. Tenfold serially diluted suspensions were plated on MHB agar plates and incubated at 37 °C overnight. Colonies were counted and the number of c.f.u. per mL was calculated. For analysis of lysis, 300 μL of culture (OD600 = 1.0) were treated with antibiotics at ten times the MIC for 24 h. Experiments were performed in triplicate.

[3] = tested on: E. coli TOP10 cells; test: Bacterial growth kinetics; format: cell-based, Escherichia coli; conditions: OD600 of cells exposed to antibiotics (Fig. 4: two times the MIC)
Method: A single fresh colony of E. coli TOP10 cells was inoculated into MHB (5 mL) and grown with shaking at 225 rpm overnight. The bacteria were diluted to 1 × 10^5 c.f.u. mL^−1 in fresh MHB, grown […] to early log-phase (OD600 = 0.15) and treated with the antibiotics of interest in the wells of a 96-well plate. Final antibiotic concentrations varied from one to eight times the MIC. The plate was then incubated at 30 °C overnight, with OD600 measurements taken every 30 s.

[4] = tested on: E. coli ATCC 25922; test: Neutropenic mouse thigh infection model; format: in vivo
Method: Given the low risk of resistance and the attractive mode of action of 1–2, an animal efficacy study was then performed in a mouse thigh model. Mice were intramuscularly infected with 1.50 × 10^6 c.f.u. of E. coli ATCC 25922. Two hours post infection, brevicidine (30 mg kg^−1) or laterocidine (15 mg kg^−1) was subcutaneously injected at two doses. […] In particular, compound 1 was highly efficacious in mice infected with E. coli and caused a 5 log10 reduction in c.f.u. in the thigh compared to the vehicle control after 24 h (Fig. 4f).
In vivo activities of brevicidine and laterocidine were tested using the mouse thigh infection model. Animal studies were performed by Pharmacology Discovery Services Taiwan Ltd. in general accordance with standard guidelines on animal welfare[38] in an AAALAC-accredited facility. The protocol was reviewed and approved by the Institutional Animal Care and Use Committee. Groups of five female-specific pathogen-free ICR (CD-1) mice weighing 22 ± 2 g (~5 weeks of age) were used. Animals were immunosuppressed with two intraperitoneal injections of cyclophosphamide, the first at 150 mg kg^−1 4 days before infection (day −4) and the second at 100 mg kg^−1 1 day before infection (day −1). On day 0, animals were inoculated intramuscularly (0.1 mL per thigh) in the right thigh with an E. coli ATCC 25922 suspension. Vehicle (10% DMSO, 1% Tween 80, 0.9% NaCl) and antibiotics were then subcutaneously injected 2 and 8 h later. Due to the limited availability of compounds 1–2, only one concentration of 1 (30 mg kg^−1) or 2 (15 mg kg^−1) was used in the present study. Precisely 26 h after inoculation, animals were euthanized by CO2 asphyxiation before their right thigh muscles were harvested. The removed muscles were homogenized in 5 mL of PBS, pH 7.4, with a Polytron homogenizer. Homogenates in the amount of 0.1 mL were used for serial tenfold dilutions and plated onto a nutrient agar medium for colony count (in c.f.u. g^−1) determination. No randomization or blinding was necessary for the animal infection models, and no samples were excluded.

[5] = tested on: rabbit erythrocytes; conditions: concentrations up to 128 μg mL^−1, 2% (v/v) rabbit erythrocytes in PBS, 1 h, 37 °C, absorbance 570 nm, vs 10% Triton X-100
Method: Hemolytic activity was determined with red blood cells freshly isolated from healthy rabbits. […] The cells were incubated for 1 h at 37 °C and centrifuged for 5 min at 10,000 × g. The supernatant was transferred to a 96-well plate and the absorbance was measured at a wavelength of 570 nm with a Thermo Scientific Multiskan FC multiplate photometer. The absorbance relative to the positive control, which was treated with 10% Triton X-100, was defined as the percentage of hemolysis.

SMILES: CCC(C)CCC(=O)N[C@H](CC(N)=O)C(=O)N[C@H](Cc1ccc(O)cc1)C(=O)N[C@H](Cc1c[nH]c2ccccc12)C(=O)N[C@H](CCCN)C(=O)N[C@@H](CCCN)C(=O)NCC(=O)N[C@H](CCCN)C(=O)N[C@@H](Cc1c[nH]c2ccccc12)C(=O)N[C@@H]1C(=O)N[C@@H]([C@@H](C)CC)C(=O)NCC(=O)N[C@@H](CO)C(=O)O[C@@H]1C (stereo partly shown) [Compound 1, brevicidine] ({Hexanoyl(4ξ-Me)}-[dN][dY][dW][dOrn][Orn]G[dOrn]WTIGS; ester 9-C)
- MIC [1]: 4 µg/mL (≈ 2.63 µM)
- bactericidal action against E. coli ([2]; as revealed by growth kinetics, time-kill assay and lysis assay): bactericidal
- cell viability in time-kill assay ([2]; ten times the MIC, early exponential cells, room temperature, c.f.u. counts, triplicate): significant reduction after 30 min
- growth kinetics of E. coli cells exposed to compound [3]: grew at a reduced rate for 30 min
- reduction in c.f.u. in the thigh compared to the vehicle control ([4]; 30 mg kg^−1 subcutaneous at 2 and 8 h post infection, neutropenic ICR mice (n = 5), after 24 h): 5 log10
- viable bacteria in thigh ([4]; brevicidine 30 mg kg^−1 twice s.c., five mice, after 26 h, Mann–Whitney P < 0.01): reduced number of viable bacteria
- lysis of erythrocytes (hemolysis) [5]: neither caused the lysis of erythrocytes
